Data reported in patent publication US9545105B2, “1-(heterocyclic carbonyl) piperidines” (BAYER INTELLECTUAL PROPERTY GMBH, priority 2010, dated 2017).
Values joined by “and” are separate entries in the source; they are usually repeats but may differ in a detail not shown here. Identical values can stand only once.

How the values were obtained:
[1] = log P by HPLC on reversed-phase column (C 18), EEC Directive 79/831 Annex V.A8; format: physicochemical; details: HPLC on reversed-phase column (C 18); 40° C.; 0.1% aqueous formic acid and acetonitrile; linear gradient 10% to 90% acetonitrile
Method in brief: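 Calibration relied on straight-chain alkan-2-ones with 3 to 16 carbon atoms and known log P, with sample values read by linear interpolation of retention time between two adjacent standards. Separation at 40° C used 0.1% aqueous formic acid with acetonitrile rising linearly from 10% to 90%. UV spectra from 200 nm to 400 nm at chromatographic peak maxima gave lambda-max.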

Sphaerotheca fuliginea = experiment: In vivo preventive test on Sphaerotheca fuliginea (cucumber); details: 500 ppm of active ingredient, evaluated 7 days after inoculation
Procedure: Solvent: 49 parts by weight of N,N-dimethylformamide Emulsifier: 1 part by weight of Alkylarylpolyglycolether To produce a suitable preparation of active compound, 1 part by weight of active compound is mixed with the stated amounts of solvent and emulsifier, and the concentrate is diluted with water to the desired concentration. To test for preventive activity, young plants are sprayed with the preparation of active compound at the stated rate of application. One day after this treatment, the plants are inoculated with an aqueous spore suspension of Sphaerotheca fuliginea. Then the plants are placed in a greenhouse at approximately 23° C. and a relative atmospheric humidity of approximately 70%. The test is evaluated 7 days after the inoculation. 0% means an efficacy which corresponds to that of the untreated control, while an efficacy of 100% means that no disease is observed.

Alternaria solani = experiment: In vivo preventive test on Alternaria solani (tomato); details: 500 ppm of active ingredient, evaluated 7 days after inoculation
Procedure: Solvent: 49 parts by weight of N,N-dimethylformamide Emulsifier: 1 part by weight of Alkylarylpolyglycolether To produce a suitable preparation of active compound, 1 part by weight of active compound is mixed with the stated amounts of solvent and emulsifier, and the concentrate is diluted with water to the desired concentration. To test for preventive activity, young plants are sprayed with the preparation of active compound at the stated rate of application. One day after this treatment, the plants are inoculated with an aqueous spore suspension of Alternaria solani. The plants remain for one day in an incubation cabinet at approximately 22° C. and a relative atmospheric humidity of 100%. Then the plants are placed in an incubation cabinet at approximately 20° C. and a relative atmospheric humidity of 96%. The test is evaluated 7 days after the inoculation. 0% means an efficacy which corresponds to that of the untreated control while an efficacy of 100% means that no disease is observed.

Pyrenophora teres = experiment: In vivo preventive test on Pyrenophora teres (barley); details: 500 ppm of active ingredient, evaluated 7-9 days after inoculation
Method in brief: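 Young barley plants sprayed with compound in DMF/alkylaryl polyglycol ether emulsion; inoculated with P. teres spores one day later. 48 h at 22 °C, 100% humidity, then greenhouse ~20 °C, ~80% humidity; efficacy scored 7-9 days post-inoculation, 0% = untreated, 100% = no disease.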

logP [1]	Compound	Efficacy (Sphaerotheca fuliginea)	Efficacy (Alternaria solani)	Efficacy (Pyrenophora teres)
3.21	Cc1ccccc1C1CCCCN1C(=O)c1c(C(F)F)nn(C)c1F (stereo not shown) [Example 6]	95%	100%	100%
3.81	Cc1ccccc1C1CCCCN1C(=S)c1c(C(F)F)nn(C)c1F (stereo not shown) [Example 7]	100%	95%	100%
3.64	Cc1ccc(C2CCCCN2C(=O)c2c(C(F)F)nn(C)c2F)cc1C (stereo not shown) [Example 9]	93%	95%	100%
3.31	Cn1nc(C(F)F)c(C(=O)N2CCCCC2c2ccccc2Cl)c1F (stereo not shown) [Example 41]	100%	100%	100%
4.00	Cn1nc(C(F)F)c(C(=S)N2CCCCC2c2ccccc2Cl)c1F (stereo not shown) [Example 42]	100%	100%	100%
3.39	Cn1nc(C(F)F)c(C(=O)N2CCCCC2c2cccc(Cl)c2)c1F (stereo not shown) [Example 48]	100%	100%	100%
4.06	Cn1nc(C(F)F)c(C(=S)N2CCCCC2c2cccc(Cl)c2)c1F (stereo not shown) [Example 49]	98%	100%	100%
3.46	Cn1nc(C(F)F)c(C(=O)N2CCCCC2c2ccc(Cl)cc2)c1F (stereo not shown) [Example 56]	79%	100%	100%
4.16	Cn1nc(C(F)F)c(C(=S)N2CCCCC2c2ccc(Cl)cc2)c1F (stereo not shown) [Example 57]	70%	100%	100%
2.56	COc1cc(OC)cc(C2CCCCN2C(=O)c2c(C)nn(C)c2F)c1 (stereo not shown) [Example 68]	83%	80%	95%
3.87	Cn1nc(C(F)F)c(C(=O)N2CCCCC2c2ccc(Cl)cc2Cl)c1F (stereo not shown) [Example 81]	94%	100%	100%
3.67	CCc1nn(C)c(F)c1C(=O)N1CCCCC1c1cc(Cl)ccc1Cl (stereo not shown) [Example 82]	79%	95%	90%
3.39	Cn1nc(C(F)F)c(C(=O)N2CCCCC2c2ccccc2Br)c1F (stereo not shown) [Example 91]	95%	100%	100%
3.92	Cn1nc(C(F)F)c(C(=S)N2CCCCC2c2ccccc2Br)c1F (stereo not shown) [Example 92]	100%	95% and 100%	100%
3.51	Cn1nc(C(F)F)c(C(=O)N2CCCCC2c2cccc(Br)c2)c1F (stereo not shown) [Example 97]	96%	100%	100%
4.16	Cn1nc(C(F)F)c(C(=S)N2CCCCC2c2cccc(Br)c2)c1F (stereo not shown) [Example 98]	100%	100%	100%
3.99	Cn1nc(C(F)F)c(C(=O)N2CCCCC2c2cccc(Oc3ccccc3)c2)c1F (stereo not shown) [Example 115]	95%	100%	100%
3.67	CCc1noc(C)c1C(=O)N1CCCCC1c1ccc(Br)s1 (stereo not shown) [Example 126]	95%	–	–
3.59	Cc1ccc(CC2CCCCN2C(=O)c2sc(C)nc2C(F)F)cc1 (stereo not shown) [Example 148]	–	94%	95%
3.55	Cc1ccc(OCC2CCCCN2C(=O)c2c(C(F)F)nn(C)c2Cl)cc1 (stereo not shown) [Example 149]	–	95%	95%
3.35	Cc1ccc(OCC2CCCCN2C(=O)c2c(C(F)F)nn(C)c2F)cc1 (stereo not shown) [Example 150]	–	100%	100%
3.13	Cn1nc(C(F)F)c(C(=O)N2CCCCC2Cc2cccc(F)c2)c1F (stereo not shown) [Example 153]	–	100%	100%
3.21	Cc1nc(C(F)F)c(C(=O)N2CCCCC2Cc2ccc(F)cc2)s1 (stereo not shown) [Example 154]	–	89%	100%

logP [1]	Compound	Efficacy (Sphaerotheca fuliginea)	Efficacy (Alternaria solani)	Efficacy (Pyrenophora teres)
3.17	COc1ccccc1CC1CCCCN1C(=O)c1c(C(F)F)nn(C)c1F (stereo not shown) [Example 157]	–	100%	100%
3.87	COc1ccccc1CC1CCCCN1C(=S)c1c(C(F)F)nn(C)c1F (stereo not shown) [Example 160]	–	90%	100%
4.06	CC(c1ccccc1Cl)C1CCCCN1C(=O)c1c(C(F)F)nn(C)c1Cl (stereo not shown) [Example 164]	–	89%	100%
3.59	Cn1nc(C(F)F)c(C(=O)N2CCCCC2Cc2cccc(C(F)(F)F)c2)c1F (stereo not shown) [Example 169]	–	100%	100%
3.87	Cn1nc(C(F)F)c(C(=O)N2CCCCC2COc2ccc3ccccc3c2)c1Cl (stereo not shown) [Example 172]	–	80%	90%
3.68	Cn1nc(C(F)F)c(C(=O)N2CCCCC2COc2ccc3ccccc3c2)c1F (stereo not shown) [Example 173]	–	100%	95%
3.37	Cn1nc(C(F)F)c(C(=O)N2CCCCC2CCc2ccccc2)c1F (stereo not shown) [Example 177]	–	100%	95%
4.06	Cn1nc(C(F)F)c(C(=S)N2CCCCC2CCc2ccccc2)c1F (stereo not shown) [Example 179]	–	95%	100%
4.11	Cc1cc(C)cc(OCCC2CCCCN2C(=O)c2c(C(F)F)nn(C)c2Cl)c1 (stereo not shown) [Example 180]	–	80%	80%
3.92	Cc1cc(C)cc(OCCC2CCCCN2C(=O)c2c(C(F)F)nn(C)c2F)c1 (stereo not shown) [Example 181]	–	100%	100%
3.29	Cn1nc(C(F)F)c(C(=O)N2CCCCC2CCOc2ccc(F)cc2F)c1F (stereo not shown) [Example 182]	–	100%	100%
3.46	Cn1nc(C(F)F)c(C(=O)N2CCCCC2CCOc2ccc(F)cc2F)c1Cl (stereo not shown) [Example 183]	–	95%	100%
4.26	Cn1nc(C(F)F)c(C(=O)N2CCCCC2CCOc2ccc(Cl)cc2Cl)c1Cl (stereo not shown) [Example 184]	–	95%	100%
4.06	Cn1nc(C(F)F)c(C(=O)N2CCCCC2CCOc2ccc(Cl)cc2Cl)c1F (stereo not shown) [Example 185]	–	100%	95%
4.39	Cn1nc(C(F)F)c(C(=O)N2CCCCC2CCOc2ccccc2-c2ccccc2)c1Cl (stereo not shown) [Example 186]	–	80%	95%
4.21	Cn1nc(C(F)F)c(C(=O)N2CCCCC2CCOc2ccccc2-c2ccccc2)c1F (stereo not shown) [Example 187]	–	95%	95%
4.49	Cn1nc(C(F)F)c(C(=O)N2CCCCC2CCOc2ccc(-c3ccccc3)cc2)c1Cl (stereo not shown) [Example 188]	–	70%	95%
4.31	Cn1nc(C(F)F)c(C(=O)N2CCCCC2CCOc2ccc(-c3ccccc3)cc2)c1F (stereo not shown) [Example 189]	–	100%	95%
4.09	Cn1nc(C(F)F)c(C(=O)N2CCCCC2CCOc2ccc3ccccc3c2)c1Cl (stereo not shown) [Example 190]	–	90%	95%
3.92	Cn1nc(C(F)F)c(C(=O)N2CCCCC2CCOc2ccc3ccccc3c2)c1F (stereo not shown) [Example 191]	–	100%	100%
3.25	Cn1nc(C(F)F)c(C(=O)N2CCCCC2CCc2cccs2)c1F (stereo not shown) [Example 194]	–	100%	100%
3.74	Cn1nc(C(F)F)c(C(=O)N2CCCCC2CCOc2ccc(C(F)(F)F)cn2)c1Cl (stereo not shown) [Example 195]	–	100%	95%
